This passage reports EC50 and solubility results from patent publication EP4789670A1, “PREPARATION CONTAINING URACIL DERIVATIVE” (Shionogi & Co., Ltd, priority 2023, dated 2025).

SMILES strings stand for the structures. Converted amounts (≈) assume the structure as drawn.

The subject of one data set is SARS-CoV-2. Kind of data set: Cytopathic effect (CPE) suppression effect confirmation test using HEK293T/ACE2-TMPRSS2 cells. It counts as cell-based. Particulars: Severe acute respiratory syndrome coronavirus 2, HEK-293T, 72 h, SARS-CoV-2 200-600 TCID50/well, cultured 3 days, CellTiter-Glo 2.0, read-out: 50% SARS-CoV-2 infected cell death inhibitory concentration (EC50). How it is done:
Test Example 1: Cytopathic Effect (CPE) Suppression Effect Confirmation Test Using HEK293T Cells Expressing Human TMPRSS2, ACE2 (HEK293T/ACE2-TMPRSS2 Cells)
The sample to be tested is diluted in advance to an appropriate concentration with DMSO, and a 2- to 5-fold series of serial dilutions is prepared and then dispensed into a 384-well plate.
HEK293T/ACE2-TMPRSS2 cells (GCP-SL222, 5×10^3 cells/well) and SARS-CoV-2 (200-600 TCID50/well) are mixed in a medium (MEM, 2% FBS, penicillin-streptomycin), the mixture is dispensed into the wells in which the sample to be tested has been introduced, and then the cells are cultured for 3 days in a CO2 incubator.
The plate that has been cultured for 3 days is returned to room temperature, subsequently CellTiter-Glo (registered trademark) 2.0 is dispensed into each well, and the plate is mixed using a plate mixer. After standing for a predetermined period of time, the luminescence signal (Lum) is measured using a plate reader.

The nature of another data set: physchem. It counts as physicochemical. On the procedure:
The solid dispersion obtained in Example 4D and the anhydrous crystal alone of the compound represented by Formula (I) (Example 4F-1) were added to various test media to prepare suspensions of 30 to 50 mL. The prepared suspensions were placed in centrifuge tubes and shaken at a shaking speed of 100 rpm or higher. After 60 minutes from the start of shaking, 5 mL of each suspension was collected and immediately filtered through a filter (Chromadisc, 0.45 µm, 25A) to obtain test samples.

On to `N#CCn1c(N2CC3(C2)CC(F)(F)C3)c(-c2ccc(F)c(Cl)c2)c(=O)n(-c2cncc(Cl)c2)c1=O` [Compound (I)], for which, in the data set with SARS-CoV-2, the EC50 amounted to 1.66 nM.

In general, solubility refers to how much of the substance goes into solution per volume. A high value points to a readily soluble substance. `N#CCn1c(N2CC3(C2)CC(F)(F)C3)c(-c2ccc(F)c(Cl)c2)c(=O)n(-c2cncc(Cl)c2)c1=O` [Example 4F-1]: the solubility at 1 h in the data set “physchem” (diluted mcilvaine buffer, pH 4) was found to be 0.64 µg/mL (≈ 1.23 µM); in the data set “physchem” (jp first dissolution test medium, pH 1.2), 1.08 µg/mL (≈ 2.07 µM); in “physchem” (jp second dissolution test medium, pH 6.8), 0.61 µg/mL (≈ 1.17 µM); in “physchem” (purified water) it was 0.71 µg/mL (≈ 1.36 µM).
